What was measured:
[1] = Rat cassette dosing pharmacokinetics (IV and PO); assay type: in vivo; details: male SD rats, plasma
hERG = hERG (Homo sapiens (Human), UniProt Q12809); assay: hERG inhibition, whole-cell patch clamp; assay type: cell-based; details: HEK293 cells stably transfected with hERG, tail current at -50 mV
Method: For hERG inhibition assays, the cells used were HEK293 cells stably transfected with hERG (cell line obtained from Cytocentrics Inc. 3463 Magic Drive San Antonio, Tex. 78229). Composition of External Solution: NaCl, 137 mM; KCl, 4 mM; MgCl2, 1.0 mM; CaCl2, 1.8 mM; HEPES 10 mM; Dextrose 11 mM; Adjusted to a pH of 7.4 with NaOH. Composition of Internal Solution: KCl, 130.0 mM; MgCl2, 1.0 mM; HEPES, 5.0 mM; EGTA, 5.0 mM; NaCl 7.0 mM. Adjusted to a pH of 7.2 using KOH. Test Concentrations: 0.1, 1, 10, 100 μM. Vehicle: DMSO. Experiments were performed at 34+/−1° C. Current was recorded using the whole-cell patch clamp technique on the Cytopatch automated platform. hERG current was elicited with the following voltage protocol: hERG current amplitude was measured as the peak current at −50 mV (tail current). […] Each cell served as its own control. Data are presented as the IC50 calculated by non-linear regression analysis.

[2] = system: CYP1A2, CYP2C9, CYP2C19, CYP3A4, CYP2D6; assay: Cyp inhibition in human liver microsomes (all isozymes); assay type: in vitro ADME
Method: For Cyp inhibition, human liver microsomes from BD Gentest were incubated with Compound 028 or Compound 032 (10, 3.33, 1.11, 0.37, 0.12, 0.04, 0.01 μM) and substrate (CYP1A2: Phenacetin at 30 μM; CYP2C9: Diclofenac at 10 μM; CYP2C19: S-Mephenytoin at 35 μM; CYP3A4: Midazolam at 5 μM and Testosterone at 80 μM; CYP2D6: Bufuralol at 10 μM) for the following incubation times: CYP1A2, 2C9, 2D6: 10 minutes, 37° C.; CYP2C19: 45 minutes, 37° C.; CYP3A4: 5 minutes, 37° C. Substrate conversion was measured by liquid chromatography/mass spectrometry/mass spectrometry (LC/MS/MS). Inhibition was calculated by curve fitting in Graph Pad Prism.

HDAC1 = HDAC1 (Homo sapiens (Human), UniProt Q13547); assay: HDAC enzyme assay; assay type: biochemical; details: 10 min preincubation, 16 μM substrate
HDAC1, sequence (Q13547 whole entry): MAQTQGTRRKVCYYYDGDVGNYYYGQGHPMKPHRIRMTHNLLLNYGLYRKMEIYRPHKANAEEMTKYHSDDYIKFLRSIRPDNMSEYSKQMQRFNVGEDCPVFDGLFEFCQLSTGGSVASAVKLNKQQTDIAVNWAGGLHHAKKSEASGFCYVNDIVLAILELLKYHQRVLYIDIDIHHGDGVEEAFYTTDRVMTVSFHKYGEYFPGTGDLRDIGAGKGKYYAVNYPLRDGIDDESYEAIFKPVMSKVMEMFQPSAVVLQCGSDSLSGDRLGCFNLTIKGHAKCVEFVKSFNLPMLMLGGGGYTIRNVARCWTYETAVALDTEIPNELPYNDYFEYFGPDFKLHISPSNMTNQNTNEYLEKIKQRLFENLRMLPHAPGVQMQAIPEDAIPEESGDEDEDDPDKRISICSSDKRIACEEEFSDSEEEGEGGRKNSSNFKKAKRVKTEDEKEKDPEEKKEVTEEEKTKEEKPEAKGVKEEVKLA

hERG, sequence (Q12809 whole entry): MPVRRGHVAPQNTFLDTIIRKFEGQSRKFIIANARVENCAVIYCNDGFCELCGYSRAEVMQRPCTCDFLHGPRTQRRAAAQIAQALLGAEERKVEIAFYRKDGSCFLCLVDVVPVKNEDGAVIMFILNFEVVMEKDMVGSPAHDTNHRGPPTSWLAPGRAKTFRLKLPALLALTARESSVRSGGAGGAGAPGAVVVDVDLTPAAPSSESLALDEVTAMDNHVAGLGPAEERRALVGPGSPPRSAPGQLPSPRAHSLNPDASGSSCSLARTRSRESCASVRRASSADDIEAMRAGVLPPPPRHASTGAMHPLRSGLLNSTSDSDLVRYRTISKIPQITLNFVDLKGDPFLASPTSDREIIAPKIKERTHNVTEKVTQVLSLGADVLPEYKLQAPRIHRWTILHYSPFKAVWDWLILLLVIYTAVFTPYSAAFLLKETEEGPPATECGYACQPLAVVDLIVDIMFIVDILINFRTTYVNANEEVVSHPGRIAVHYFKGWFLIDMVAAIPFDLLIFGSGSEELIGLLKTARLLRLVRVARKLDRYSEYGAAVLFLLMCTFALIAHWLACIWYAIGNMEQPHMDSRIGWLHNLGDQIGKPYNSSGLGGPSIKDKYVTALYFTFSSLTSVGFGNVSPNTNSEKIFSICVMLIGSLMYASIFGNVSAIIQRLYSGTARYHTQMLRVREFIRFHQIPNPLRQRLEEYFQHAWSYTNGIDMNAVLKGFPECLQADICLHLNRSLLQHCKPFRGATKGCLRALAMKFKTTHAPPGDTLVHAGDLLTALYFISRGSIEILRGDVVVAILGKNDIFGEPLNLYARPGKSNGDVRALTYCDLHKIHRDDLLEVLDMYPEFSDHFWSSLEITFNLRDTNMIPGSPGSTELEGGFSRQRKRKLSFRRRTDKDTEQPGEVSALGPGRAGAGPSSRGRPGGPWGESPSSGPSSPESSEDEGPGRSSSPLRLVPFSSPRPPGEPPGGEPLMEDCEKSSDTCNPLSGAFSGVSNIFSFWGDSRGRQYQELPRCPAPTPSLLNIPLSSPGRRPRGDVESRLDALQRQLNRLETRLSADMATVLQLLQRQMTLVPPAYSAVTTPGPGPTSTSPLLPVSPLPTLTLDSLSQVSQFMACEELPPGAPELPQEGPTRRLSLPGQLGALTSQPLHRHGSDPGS

Compound: CN1CCN(c2ncc(C(=O)Nc3cc(-c4cccs4)ccc3N)s2)CC1 [Compound 030]
- AUC ([1]; PO 5 mg/kg): 15300 ng·h/mL
- Cmax ([1]; PO 5 mg/kg): 944 ng/mL
- half-life ([1]; PO 5 mg/kg, read-out: PO T1/2 (converted)): 768 min
- bioavailability ([1]; 5 mg/kg, oral AUC to IV AUC, dose adjusted): 170%
- IC50 (hERG): 70 µM
- IC50 [2]: > 10 µM

Compound: Nc1ccc(-c2ccccc2)cc1NC(=O)c1ncc(N2CCNCC2)s1 [Compound 049]
- IC50 (HDAC1): < 10 nM
